In US11224585B2, “Compositions containing omega-3 oil and uses thereof” (Maine Natural Health Company, Inc., priority 2010, dated 2022):

Tests used:
[1] = Absorption rate of ibuprofen in mice (tail vein samples); format: in vivo; conditions: mouse, blood (tail vein samples), 25 mg/kg
Excerpt: Additional experiments to test the absorption rate of the different omega-3 oil-containing pharmaceutical compositions described herein was illustrated in a mouse model.

[2] = system: carrageenin-induced ear swelling mouse model; assay: Carrageenin-induced ear swelling mouse model of inflammation; conditions: mice, ketoprofen 2 mg/kg, ear volume vs control mice, eight mice per treatment
[3] = system: stomach lesions in fasted mice; conditions: 10 mg/kg ketoprofen, one hour after administration, n = 8

Cmax [1] | Average Lesions Score/Stomach [3] | Structure (SMILES) | % of Inhibition of Inflammation [2]
10000 ng/mL |  | CC(C)Cc1ccc(C(C)C(=O)O)cc1 (stereo not drawn) [Ibuprofen in saline, ibuprofen] | 
 | 33 | CC(C(=O)O)c1cccc(C(=O)c2ccccc2)c1 (stereo not drawn) [Ketoprofen in Saline, ketoprofen] | 45%
